# In patent publication US5747235A, “Silver halide light sensitive emulsion layer having enhanced photographic sensitivity” (Eastman Kodak Company, priority 1996, dated 1998):
# Key:
# [1] = fragmentation rate constant kfr by laser flash photolysis; assay type: physicochemical; details: Table B; CH3CN/H2O (4:1)
# Description: The kinetics of the bond cleavage or fragmentation reaction can be measured by conventional laser flash photolysis. […] The specific experimental apparatus we used to measure fragmentation rate constants and radical oxidation potentials is described in detail below.
# (b) Fragmentation Rate Constant Determination
# These absorptions were used to determine the kinetics of the fragmentation reactions of the radical cations of the X-Y. Excitation of 9,10-dicyanoanthracene (DCA) in the presence of biphenyl and the X-Y donor, as described above, results in the formation of the DCA^.cndot.- and the X-Y^.cndot.+. By using a concentration of X-Y of ca. 10^-2 M, the X-Y^.cndot.+ can be formed within ca. 20 ns of the laser pulse. […] The monitoring wavelengths used were somewhat different for the different donors, but were mostly around 470-530 nm. […] Alternatively, when the decay rate of the X-Y^.cndot.+ was less than 10^6 s^-1, the solutions were purged with oxygen.
# The experiments measuring the fragmentation rate constants were performed in acetonitrile with the addition of 20% water, so that all of the salts could be easily solubilized. Most experiments were performed at room temperature. […] When this happened, the fragmentation rate constants were measured as a function of temperature, and the rate constant at room temperature determined by extrapolation.
# [2] = oxidation potential E1 by cyclic voltammetry; assay type: physicochemical; details: Table A; 80%/20% acetonitrile/water, 0.1M lithium perchlorate, 25° C.
# Protocol: Oxidation potentials are well known and can be found, for example, in "Encyclopedia of Electrochemistry of the Elements", Organic Section, Volumes XI-XV, A. Bard and H. Lund (Editors) Marcel Dekker Inc., NY. (1984). E1 can be measured by the technique of cyclic voltammetry. In this technique, the electron donating compound is dissolved in a solution of 80%/20% by volume acetonitrile to water containing 0.1M lithium perchlorate. Oxygen is removed from the solution by passing nitrogen gas through the solution for 10 minutes prior to measurement. A glassy carbon disk is used for the working electrode, a platinum wire is used for the counter electrode, and a saturated calomel electrode (SCE) is used for the reference electrode. Measurement is conducted at 25° C. using a potential sweep rate of 0.1 V/sec. The oxidation potential vs. SCE is taken as the peak potential of the cyclic voltammetric wave.
# [3] = oxidation potential E2 of radical X by laser flash photolysis; assay type: physicochemical; details: Table C; by parent XY compound; < = more negative than
# Description: In this technique, the compound X-Y is oxidized by an electron transfer reaction initiated by a short laser pulse. The oxidized form of X-Y then undergoes the bond cleavage reaction to give the radical X^.cndot.. X^.cndot. is then allowed to interact with various electron acceptor compounds of known reduction potential. […] The experimental details are set forth more fully below. The oxidation potentials (E2) for radicals X^.cndot. for typical compounds useful in accordance with our invention are given in Table C. Where only limits on potentials could be determined, the following notation is used: <-0.90 V should be read as "more negative than -0.90 V" and >-0.40 V should be read as "less negative than -0.40 V".
# (a) Oxidation Potential of Radical X.cndot.
# The laser flash photolysis measurements were performed using a nanosecond pulsed excimer (Questek model 2620, 308 nm, ca. 20 ns, ca. 100 mJ) pumped dye laser (Lambda Physik model FL 3002). The laser dye was DPS (commercially available from Exciton Co.) in p-dioxane (410 nm, ca. 20 ns, ca. 10 mJ). The analyzing light source was a pulsed 150W xenon arc lamp (Osram XBO 150/W). The arc lamp power supply was a PRA model 302 and the pulser was a PRA model M-306. The pulser increased the light output by ca. 100 fold, for a time period of ca. 2-3 ms. The analyzing light was focussed through a small aperture (ca. 1.5 mm) in a cell holder designed to hold 1 cm^2 cuvettes. The laser and analyzing beams irradiated the cell from opposite directions and crossed at a narrow angle (ca. 15°). After leaving the cell, the analyzing light was collimated and focussed onto the slit (1 mm, 4 nm bandpass) of an ISA H-20 monochromator. The light was detected using 5 dynodes of a Hamamatsu model R446 photomultiplier. The output of the photomultiplier tube was terminated into 50 ohm, and captured using a Tektronix DSA-602 digital oscilloscope. The entire experiment is controlled from a personal computer.
# The experiments were performed either in acetonitrile, or a mixture of 80% acetonitrile and 20% water. The first singlet excited state of a cyanoanthracene (A), which acted as the electron acceptor, was produced using the nanosecond laser pulse at 410 nm. […] Secondary electron transfer then occurred between B^.cndot.+ and the lower oxidation potential electron donor X-Y, to generate X-Y^.cndot.+ in high yield. For the investigations of the oxidation potentials of the radicals X^.cndot., typically the cyanoanthrancene concentration was ca. 2×10^-5 M to 10^-4 M the biphenyl concentration was ca. 0.1M. The concentration of the X-Y donor was ca. 10^-3 M. The rates of the electron transfer reactions are determined by the concentrations of the substrates. The concentrations used ensured that the A^.cndot.- and the X-Y^.cndot.+ were generated within 100 ns of the laser pulse. The radical ions could be observed directly by means of their visible absorption spectra. The kinetics of the photogenerated radical ions were monitored by observation of the changes in optical density at the appropriate wavelengths.
# The reduction potential (Ered) of 9,10-dicyanoanthracene (DCA) is -0.91 V. In a typical experiment, DCA is excited and the initial photo-induced electron transfer from the biphenyl (B) to the DCA forms a DCA^.cndot.-, which is observed at its characteristic absorption maximum (λobs =705 nm), within ca. 20 ns of the laser pulse. Rapid secondary electron transfer occurs from X-Y to B^.cndot.+ to generate X-Y^.cndot.+, which fragments to give X^.cndot.. A growth in absorption is then observed at 705 nm with a time constant of ca. 1 microsecond, due to reduction of a second DCA by the X^.cndot.. The absorption signal with the microsecond growth time is equal to the size of the absorption signal formed within 20 ns.
# If the oxidation potential of X^.cndot. is not sufficiently negative to reduce DCA, an estimate of its oxidation potential was obtained by using other cyanoanthracenes as acceptors. […]
# [4] = Example 7: photographic speed and fog with/without HB3, 365 nm exposure, emulsion T-2; details: emulsions containing red or blue sensitizing dye and electron donor
# Protocol: For photographic evaluation, each of the coating strips was exposed for 0.1 sec to a 365 nm emission line of a Hg lamp filtered through a Kodak Wratten filter number 18A and a step wedge ranging in density from 0 to 4 density units in 0.2 density steps. The exposed film strips were developed for 6 min in Kodak Rapid X-ray Developer (KRX). S365, relative sensitivity at 365 nm, was evaluated at a density of 0.2 units above fog.
# An AgBrI tabular silver halide emulsion (Emulsion T-2) was prepared containing 4.05% total I distributed such that the central portion of the emulsion grains contained 1.5% I and the perimeter area contained substantially higher I, as described by Chang et. al., U.S. Pat. No. 5,314,793. […] This emulsion was precipitated using deionized gelatin. The emulsion was sulfur sensitized by adding 8.5×10^-6 mole 1,3-dicarboxymethyl-1,3-dimethyl-2-thiourea /mole Ag at 40° C.; the temperature was then raised to 60° C. at a rate of 5° C./3 min and the emulsions held for 20 min before cooling to 40° C. The chemically sensitized emulsion was then used to prepare coatings containing the fragmentable two-electron donor compounds. […] Where present, the blue sensitizing dye D-I or the red sensitizing dye D-II were added from methanol solution to the emulsion at 40° C. after the chemical sensitization and disulfocatechol addition. The fragmentable two-electron donor compounds were added to the emulsion at 40° C. and the coatings were prepared and tested as described in Example 1, except that the additional gelatin used to prepare the coatings described in Table III was deionized gelatin.
# Where present the blue sensitizing dye D-I or the red sensitizing dye D-II were added from methanol solution to the emulsion at 40° C. after the chemical sensitization and disulfocatechol addition. The fragmentable two-electron donating compounds were then added to the emulsion and coatings prepared as described in Example 1, except that the additional gelatin used to prepare the coatings described in Table VII was deionized gelatin. The coatings were tested for their response to a 365 nm exposure as described in Example 1.
Compound,"kfr, Rate Constants for Decarboxylation of Radical Cations [1]","Oxidation Potential of X--Y, E1 [2]","Oxidation Potentials of Radicals (X*), E2 [3]",effect on fog [4]
CN(C)c1ccc(CC(=O)O)cc1 [Compound 1],~ 3.0 × 10^5 s^-1,0.53 V vs SCE,> -0.5 V,
COc1ccc(N(CC(=O)O)CC(=O)O)cc1 [Compound 10],9300 s⁻¹,0.38 V vs SCE,< -0.9 V,
Cc1ccc(N(CC(=O)O)CC(=O)O)cc1 [Compound 11],1.6e+06 s⁻¹,0.46 V vs SCE,~ -0.9 V,
O=C(O)CN(CC(=O)O)c1ccccc1 [Compound 13],1.7e+07 s⁻¹,0.54 V vs SCE,~ -0.85 V,
CC(C(=O)O)N(CC(=O)O)c1ccccc1 (stereo not shown) [Compound 14],> 2e+07 s⁻¹,0.50 V vs SCE,< -0.9 V,
COc1ccc(N(CC(=O)O)C(C)C(=O)O)cc1 (stereo not shown) [Compound 15],90000 s⁻¹,0.36 V vs SCE,< -0.9 V,
Cc1ccc(N(CC(=O)O)C(C)C(=O)O)cc1 (stereo not shown) [Compound 20],8.1e+06 s⁻¹,0.46 V vs SCE,< -0.9 V,
Cc1ccc(NC(CC(=O)O)C(=O)O)cc1 (stereo not shown) [Compound 29],5.4e+06 s⁻¹,0.52 V vs SCE,< -0.9 V,
CCCCN(c1ccc(OC)cc1)C(C)C(=O)O (stereo not shown) [Compound 36],1.1e+06 s⁻¹,0.22 V vs SCE,< -0.9 V,
Cn1cc(C(C)(C)C(=O)O)c2ccccc21 [Compound 44],530000 s⁻¹,0.64 V vs SCE,-0.81 V,
Cc1ccc(NC(C)C(=O)O)cc1 (stereo not shown) [Compound 54],1.4e+07 s⁻¹,0.44 V vs SCE,< -0.9 V,
O=C(O)C(O)c1c2ccccc2cc2ccccc12 (stereo not shown) [Compound 56],120000 s⁻¹,0.65 V vs SCE,< -0.9 V,
CC(C(=O)O)N1c2ccccc2Sc2ccccc21 (stereo not shown) [Compound 57],ca. 1 × 10^5 s^-1,0.49 V vs SCE,< -0.9 V,
"O=S(=O)(O)c1cc(O)c(O)c(S(=O)(=O)O)c1 [HB3, 2,4-disulfocatechol, reference compound]",,,,the level of fog can be lowered
